Source: US20210038566A1, “USE OF MODULATORS OF NEET PROTEINS FOR THE TREATMENT OF INFECTION” (ENYO PHARMA, priority 2018, published 2021)
pIC50: −log10 of the molar value.

Tested on: H1N1 (influenza A/New Caledonia/20/99)
Experiment: microbe, parasite or virus in culture
Assay type: cell-based
Conditions: H1N1, A549, 48 h, read-out: IC50 (antiviral effect, Influenza replication)

COc1ccc(C(=O)Nc2sc3c(c2C(=O)O)CCC(C)(C)C3)cc1OC [Compound #18] gave a pIC50 of 7.30.
CCOC(=O)N1CCC(NC(=S)Nc2cc(Cl)cc(Cl)c2)CC1 [Compound T01001, ethyl-4-(3-(3,5-dichlorophenyl)thioureido)piperidine-1-carboxylate] gave a pIC50 of 4.74.
Molecule CCc1ccc(CCOc2ccc(CC3SC(=O)NC3=O)cc2)nc1 (stereo not drawn) [Pioglitazone] has a pIC50 of 4.42.
